The source of these data is US20250228838A1, “METHODS OF USE OF CYCLIC AMIDE DERIVATIVES TO TREAT SIGMA RECEPTOR MEDIATED DISORDERS” (Minerva Neurosciences, Inc., priority 2010, published 2025).

Series [1] has as its system patients with DSM-IV schizophrenia. In words: Phase 2 double-blind, randomized, placebo-controlled clinical study of CYR-101. Type of series: in vivo, human. As for the experimental part: A study was conducted using the compound of formula II, to examine the efficacy on schizophrenia and treatment of symptoms of schizophrenia. The study was a multi-center, inpatient and ambulatory, phase 2, double-blind, randomized, placebo-controlled proof of concept study of the compound of formula II in patients with DSM-IV schizophrenia. The study used 21 centers across three different countries. The study was designed to test the therapeutic efficacy of the compound of formula II on all dimensions of schizophrenic disease (E.g., positive, negative, and general symptoms, cognition, sleep, mood and anxiety). The study also examined the safety of the administered doses of the compound of formula II (also referred to herein as CYR-101), including heart repolarization (i.e., QT interval), weight change, adverse events, prolactin, and extrapyramidal symptoms). The study was conducted for a time period of three months. […] In one aspect of the study, the dosage of compound was titrated up to 32 mg b.i.d. The resulting data was analyzed one of three ways: 1.) Safety set; 2.) Full analysis set, with each patient having at least one PANSS evaluation after treatment initiation included in the efficacy analysis. The LOCF method is used; and 3.) Per protocol set, where for certain analyses, all patients having completed three months of treatment are included. ANCOVA followed by a contrast analysis at each time point were applied and in some cases, a non-parametric Wilcoxon test was used.

For another series, the target named is 5-HT2A (Homo sapiens, UniProt P28223). As to conditions: cited from earlier work.
Sequence of 5-HT2A (P28223 whole entry, species assumed): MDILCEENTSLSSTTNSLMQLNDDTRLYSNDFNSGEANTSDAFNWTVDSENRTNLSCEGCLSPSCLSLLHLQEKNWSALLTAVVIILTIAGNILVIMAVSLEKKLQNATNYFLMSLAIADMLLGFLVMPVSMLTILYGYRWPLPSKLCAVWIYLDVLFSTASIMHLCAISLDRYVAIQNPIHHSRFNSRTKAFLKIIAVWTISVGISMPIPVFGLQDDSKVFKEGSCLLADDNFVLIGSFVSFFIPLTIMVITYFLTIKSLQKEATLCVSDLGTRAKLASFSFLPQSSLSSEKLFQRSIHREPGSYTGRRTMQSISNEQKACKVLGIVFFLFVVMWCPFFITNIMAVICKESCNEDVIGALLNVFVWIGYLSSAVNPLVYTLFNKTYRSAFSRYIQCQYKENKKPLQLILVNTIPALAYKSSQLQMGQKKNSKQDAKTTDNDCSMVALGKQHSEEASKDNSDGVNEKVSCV
In another series the target is sigma 2 receptor (Homo sapiens, UniProt Q5BJF2). The following applies: cited from earlier work.
Sequence of sigma 2 receptor (Q5BJF2 whole entry, species assumed): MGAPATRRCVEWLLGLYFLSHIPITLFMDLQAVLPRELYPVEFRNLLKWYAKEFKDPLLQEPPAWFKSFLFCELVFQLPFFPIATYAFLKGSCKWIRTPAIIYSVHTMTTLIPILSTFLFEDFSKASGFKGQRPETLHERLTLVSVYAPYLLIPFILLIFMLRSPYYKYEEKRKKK
The next series deals with dopamine. As to conditions: cited from earlier work.

As to `O=C(CN1CCC(CN2Cc3ccccc3C2=O)CC1)c1ccc(F)cc1` [CYR-101, 2-[[1-[2-(4-Fluorophenyl)-2-oxoethyl]piperidin-4-yl]methyl]isoindolin-1-one], the QT interval entry in series [1] (doses up to 32 mg b.i.d., clinically acceptable limits E.g. 10-15 milliseconds or less) was “did not cross clinically acceptable limits”. Also, the “cognitive performances assessed by BACS, versus placebo” value in series [1] (full analysis set (FAS)) was “no differences between the placebo group and the CYR-101 group, except for the Token motor task”. Further, the “cognitive performances assessed by BACS, versus placebo” value in series [1] (per protocol set (PPC) at D84, Token motor task, list learning task, verbal fluency, processing speed, not statistically significant) is “slight difference in favour of CYR-101 group”. In addition, in series [1] (schizophrenic patients), the “duration of continued improvement in both positive and negative symptoms” value is on record as “continued for more than twelve weeks”; the effect on cognition entry is on record as “positive effect on cognition”; the “mood, anxiety and sleep” value is “some improvements of mood, anxiety and sleep”. In addition, the “improvement in positive symptoms” value in series [1] (schizophrenic patients, PANSS) is “did not improve until after the first four weeks of treatment”. For the same compound, the “improvement in negative symptoms” value in series [1] (schizophrenic patients, PANSS, course of treatment) is “observed immediately, and continued through the course of treatment”. Also, the “emergence or worsening of extrapyramidal symptoms, CYR-101 versus placebo” value in series [1] (schizophrenic patients, three months, titrated up to 32 mg b.i.d.) is on record as “no significant difference”. For the same compound, in series [1] (three SAE in total, two in placebo group, unlikely related to CYR-101), the “number of SAE in the active treatment group” value is “one”. The “mode of action at 5-HT2A” value at 5-HT2A is reported as “antagonist”. Moreover, the Ki on sigma 2 receptor (Table 3 of U.S. Pat. No. 7,166,617, read-out: affinity for the sigma 2 receptor) was 13 nM. At sigma 2 receptor, the “mode of action at sigma 2” value is recorded as “antagonist” and the “sigma 2 selectivity of receptor binding” value is listed as “sigma 2-selective receptor binding”. Moreover, the dopamine binding result in the series on dopamine is reported as “devoid of dopamine binding properties”.
